The values below are quoted from earlier work in patent US20200306172A1, “DEPIGMENTING DERMATOLOGICAL AND COSMETIC COMPOSITIONS” (NUNII LABORATOIRE, priority 2017, published 2020).

For data set [1] the following is noted: pH 4 to pH 6.
The conditions of data set [2]: powder raw material.

Like-named read-outs stand apart in the source and are kept apart here.

Turning to `CCOC1=C(O)C(=O)O[C@@H]1[C@@H](O)CO` [3-O-ethyl-L-ascorbic acid], in data set [1], the stability entry was “more stable than ascorbic acid and its other derivatives”. Further, the solubility result in data set [2] is “soluble in water and alcohol”.

On to `O=c1cc(CO)occ1O` [kojic acid], for which the depigmenting activity result by setting is: (kojic acid at 1%) “no depigmenting activity”; (kojic acid at 4% dose) “shows a depigmenting effect”.

For the compound `OCC1O[C@H](Oc2ccc(O)cc2)C(O)C(O)[C@@H]1O` (stereo partly drawn) [α-arbutin], the solubility result in data set [2] is on record as “readily soluble in water”.

Take `NC(=O)c1cccnc1` [Niacinamide]: the solubility entry in data set [2] is reported as “readily soluble in water, alcohol or glycerol”.

On to `Oc1ccc(/C=C/c2cc(O)cc(O)c2)cc1` [Trans-resveratrol], for which the solubility result in data set [2] was “soluble in polyethylene glycols and propylene glycols”.
